The record followed here is patent publication US10570157B2, “Cyclic diarylboron derivatives as NLRP3 inflammasome inhibitors” (The University of Manchester, priority 2015, dated 2020).

Data set [1] relates to inflammasome / IL-1β release in THP1 cell line. Briefly: IL-1β release from LPS-primed, nigericin-activated THP1 cells (ELISA). The conditions noted are these: for potency in the screen of NBC molecules (effect on IL-1β release): 10 μM compound, 15 min before nigericin (20 μM, 1 h), LPS-primed THP1 cells, normalised to nigericin-induced IL-1β release. It is filed as cell-based, human. The procedure:
Data are the mean±SD of at least 4 separate experiments.
To screen the compounds of the invention, the human monocytic THP1 cell line was used. Cells were primed with LPS (1 μg/ml, 4 h) and then treated with vehicle (0.5% DMSO) or NBC molecule of the invention (see compounds listed below) at 10 μM for 15 min before activation of the inflammasome and IL-1β release with nigericin (20 μM, 1 h). The NBC molecule was present throughout nigericin stimulation. The effects of the molecules on IL-1β release were normalised to nigericin-induced IL-1β release in the absence of any inhibitor (FIGS. 1-3).
(In general: An ELISA detects its analyte on a solid surface through an enzyme-linked reagent.)

The melting point is the temperature of the solid-liquid transition. What is called IC50 is the concentration needed to halve the response being measured.

As to `CC(=O)C1=C(C(Cl)(Cl)Cl)N[B-](c2ccccc2)(c2ccccc2)[O+]=C1NCc1ccc2ccc3cccc4ccc1c2c34`, the melting point is 167 to 169 °C (dec.). For the compound `CC(=O)C1=C(C(Cl)(Cl)Cl)N[B-](c2ccccc2)(c2ccccc2)[O+]=C1N` [compound 14, (Z)-2-Acetyl-3-amino-4,4,4-trichlorobut-2-enamide diphenylboron], the “potency in the screen of NBC molecules (effect on IL-1β release)” value (“potency in the screen of NBC molecules” below) in data set [1] is on record as “most potent”. Besides, 500 nM corresponded to half-maximal inhibition in data set [1] (Homo sapiens, THP-1, THP1 cells, LPS primed, nigericin stimulated, FIG. 3) (IC50).

For `CC1=[O+][B-](c2ccccc2)(c2ccccc2)NC(C(Cl)(Cl)Cl)=C1C(=O)OC(C)(C)C` [compound 41, 5-(tert-Butoxycarbonyl)-2,2-di phenyl-6-methyl-4-(trichloromethyl)-2,3-dihydro-1,3,2-oxazaborinin-1-ium-2-uide], the melting point lay in the range of 147 to 149 °C.

Regarding `NC(=O)C1=C(C(Cl)(Cl)Cl)N[B-](c2ccccc2)(c2ccccc2)[O+]=C1N` [compound 42, 6-Amino-5-carbamoyl-2,2-diphenyl-4-(trichloromethyl)-2,3-dihydro-1,3,2-oxazaborinin-1-ium-2-uide], the “potency in the screen of NBC molecules” value in data set [1] is given as “most potent”. As for `CC(=O)C1=C(C(Cl)(Cl)Cl)N[B-](c2ccccc2)(c2ccccc2)[O+]=C1NC1CCCCC1` [compound 48, 5-Acetyl-6-(cyclohexylamino)-2,2-diphenyl-4-(trichloromethyl)-2,3-dihydro-1,3,2-oxazaborinin-1-ium-2-uide], the melting point lay within 53 to 54 °C. In data set [1], the “potency in the screen of NBC molecules” value was “most potent”. With `CC(=O)C1=C(C(Cl)(Cl)Cl)N[B-](c2ccc(C)cc2)(c2ccc(C)cc2)[O+]=C1N` [compound 57, 5-Acetyl-6-amino-2,2-bis(p-tolyl)-4-(trichloromethyl)-2,3-dihydro-1,3,2-oxazaborinin-1-ium-2-uide], the melting point was 145 to 148 °C (dec.). On the same count and under the same terms, to `CC(=O)C1=C(C(Cl)(Cl)Cl)N[B-](c2ccccc2)(c2ccc(C)cc2)[O+]=C1N` (stereo not drawn) [compound 59, 5-Acetyl-6-amino-2-(phenyl)-2-(p-tolyl)-4-(trichloromethyl)-2,3-dihydro-1,3,2-oxazaborinin-1-ium-2-uide] belongs 141 to 143 °C.
